Where two headings read alike, the source gives them in different places. Blank lines part the entries; values can stand above or below the compound they belong to.
What was measured:
A549 cells [1] = assay: Micro RNA expression pattern by oligo microarray (Agilent Human miRNA array v16.0, 1347 human micro RNAs); assay type: cell-based; conditions: A549, treated at IC20 for 48 hours; for number of up-regulated micro RNAs out of 1347 / up-regulated micro RNA, share of 1347 micro RNAs: signal ratio to control higher than 1.5; for down-regulated micro RNA, share of 1347 micro RNAs / number of down-regulated micro RNAs out of 1347: signal ratio to control lower than 0.66
[2] = tested on: hsa-miR-590-5p (MIMAT0003258); assay: Micro RNA microarray, change of hsa-miR-590-5p expression; assay type: cell-based, human; conditions: for Change (Fold) hsa-miR-590-5p: A549, treated at IC20 for 48 hours, microarray, versus control
A549 cells [3] = assay: in vitro; assay type: cell-based, human
Method: (§1) A549 cells (Korean Cell Line Bank), the human lung cancer tissue derived cell line, were cultured in 100 mm dish containing RPMI (Gibro-BRL, USA) supplemented with 10% FBS until the confluency reached 80%. […] The concentration of vehicle was up to 0.1% in every experiment.
(§2) MTT assay was performed with A549 cell line according to the method of Mossman, et al (J. Immunol. Methods, 65, 55-63, 1983).
(§3) 48 hours later, 5 mg/ml of MTT (3-4,5-dimethylthiazol-2,5-diphenyltetra zolium bromide) was added thereto, followed by culture at 37° C. for 3 hours. Then, the medium was discarded and the formed formazan crystal was dissolved in 500 μl of DMSO, which was aliquoted in 96-well plate. OD540 was measured.

[4] = tested on: hsa-miR-28-5p (MIMAT0000085); assay: Micro RNA microarray, change of hsa-miR-28-5p expression; assay type: cell-based, human; conditions: for Change (Fold) hsa-miR-28-5p: A549, treated at IC20 for 48 hours, microarray, versus control
in vitro = assay type: cell-based, human; conditions: human
Method: as §1, §2, §3

- IC20 (A549 cells [3]): 4.6 mM
Compound: CCCC=O [butylaldehyde]
- number of up-regulated micro RNAs out of 1347 (A549 cells [1]): 14
- up-regulated micro RNA, share of 1347 micro RNAs (A549 cells [1]): 1.04%
- down-regulated micro RNA, share of 1347 micro RNAs (A549 cells [1]): 0.82%
- number of down-regulated micro RNAs out of 1347 (A549 cells [1]): 11
- Change (Fold) hsa-miR-590-5p [2]: 0.563 Fold
- expression level of hsa-miR-590-5p compared to the normal control group ([2]; result in words): down-regulated
- Change (Fold) hsa-miR-28-5p [4]: 0.962 Fold

Compound: CCCCCCC=O [heptanal]
- number of up-regulated micro RNAs out of 1347 (A549 cells [1]): 0
- up-regulated micro RNA, share of 1347 micro RNAs (A549 cells [1]): 0.00%
- down-regulated micro RNA, share of 1347 micro RNAs (A549 cells [1]): 0.30%
- number of down-regulated micro RNAs out of 1347 (A549 cells [1]): 4
- Change (Fold) hsa-miR-590-5p [2]: 0.512 Fold
- expression level of hsa-miR-590-5p compared to the normal control group ([2]; result in words): down-regulated
- Change (Fold) hsa-miR-28-5p [4]: 0.922 Fold
- expression level of hsa-miR-28-5p compared to the normal control group ([4]; result in words): down-regulated

Compound: CCCCCC=O [hexanal]
- number of up-regulated micro RNAs out of 1347 (A549 cells [1]): 5
- up-regulated micro RNA, share of 1347 micro RNAs (A549 cells [1]): 0.37%
- down-regulated micro RNA, share of 1347 micro RNAs (A549 cells [1]): 0.07%
- number of down-regulated micro RNAs out of 1347 (A549 cells [1]): 1
- expression level of hsa-miR-590-5p compared to the normal control group [2]: up-regulated
- expression level of hsa-miR-28-5p compared to the normal control group [4]: up-regulated

- IC20 at 48 h (in vitro): 440 µM
Compound: CCCCCCCCC=O [nonanal]
- number of up-regulated micro RNAs out of 1347 (A549 cells [1]): 6
- up-regulated micro RNA, share of 1347 micro RNAs (A549 cells [1]): 0.45%
- down-regulated micro RNA, share of 1347 micro RNAs (A549 cells [1]): 0.00%
- number of down-regulated micro RNAs out of 1347 (A549 cells [1]): 0
- Change (Fold) hsa-miR-590-5p [2]: 0.966 Fold
- expression level of hsa-miR-590-5p compared to the normal control group ([2]; result in words): down-regulated
- Change (Fold) hsa-miR-28-5p [4]: 1.569 Fold
- expression level of hsa-miR-28-5p compared to the normal control group ([4]; result in words): up-regulated

Compound: CCCCCCCC=O [octanal]
- number of up-regulated micro RNAs out of 1347 (A549 cells [1]): one
- up-regulated micro RNA, share of 1347 micro RNAs (A549 cells [1]): 0.07%
- down-regulated micro RNA, share of 1347 micro RNAs (A549 cells [1]): 1.04%
- number of down-regulated micro RNAs out of 1347 (A549 cells [1]): 14
- Change (Fold) hsa-miR-590-5p [2]: 0.508 Fold
- expression level of hsa-miR-590-5p compared to the normal control group ([2]; result in words): down-regulated
- Change (Fold) hsa-miR-28-5p [4]: 0.755 Fold
- expression level of hsa-miR-28-5p compared to the normal control group ([4]; result in words): down-regulated

Compound: CCC=O [propionaldehyde]
- number of up-regulated micro RNAs out of 1347 (A549 cells [1]): 13
- up-regulated micro RNA, share of 1347 micro RNAs (A549 cells [1]): 0.97%
- down-regulated micro RNA, share of 1347 micro RNAs (A549 cells [1]): 0.15%
- number of down-regulated micro RNAs out of 1347 (A549 cells [1]): 2
- expression level of hsa-miR-28-5p compared to the normal control group ([4]; result in words): up-regulated

Compound: CCCCC=O [valeraldehyde]
- number of up-regulated micro RNAs out of 1347 (A549 cells [1]): 8
- up-regulated micro RNA, share of 1347 micro RNAs (A549 cells [1]): 0.59%
- down-regulated micro RNA, share of 1347 micro RNAs (A549 cells [1]): 0.15%
- number of down-regulated micro RNAs out of 1347 (A549 cells [1]): 5
- Change (Fold) hsa-miR-590-5p [2]: 1.253 Fold
- expression level of hsa-miR-590-5p compared to the normal control group ([2]; result in words): up-regulated
- Change (Fold) hsa-miR-28-5p [4]: 1.660 Fold
- expression level of hsa-miR-28-5p compared to the normal control group ([4]; result in words): up-regulated
